Entries after “also recorded” stand apart in the source; their conditions may differ.
Experiments:
PC12 cells = assay: Neurite regeneration and quantitative comparison of neurites in PC12 cell line; format: cell-based, rat; details: NGF 50 ng/ml, 3 days
Description: (§1) PC12 cells and SH-SY5Y cells were incubated in DMEM supplemented with 10% FBS. In order to differentiate the cells, NGF or retinoic acid was treated in a serum-free medium.
(§2) Retinoic acid (50 μM) and NGF (50 ng/ml) inducing neurite growth were used as positive controls.
Subsequently, the length of neurites in each group was measured.
2) Differentiation index was scored as follows: no neurite expression (0), the length of expressed neurites was less than the diameter of cell bodies (1), the length of expressed neurites was similar to the diameter of cell bodies (2), the length of expressed neurites was less than two times as long as the diameter of cell bodies (3), and the length of expressed neurites was more than two times as long as the diameter of cell bodies, or the expressed neurites form synapses together with other nerve cells (4). 200 differentiated cells from each microculture well were defined as one unit, and five units were statistically analyzed.

HiB5 cells = assay: Induction of differentiation of HiB5 neuronal stem cells (neurofilament immunostaining, confocal microscope); format: cell-based, white rat
Description: A positive control group was treated with bFGF to induce the differentiation into nerve cells.
Cell culture medium was prepared by adding a mixture of 10% FBS (fetal bovine serum), penicillin/streptomycin, glutamine and sodium pyruvate (0.11 g/L) to DMEM. On differentiating at 39 C, another cell culture medium was prepared by adding pyruvate to a serum-free medium (N2, containing DMEM/F12, insulin, transferrin, Putreseine and BSA; Botten Stein & Sato., 1979).
Tissue sections were fixed with 4% paraformaldehyde and cryosected to a thickness of […]. The cryosected tissue sections were stained with nerve cell- or astrocyte-labeled antibody and FITC-labeled secondary antibody before examining under a confocal microscope. In order to stain with nerve cell-labeled antibody, cultured cells were fixed with 4% paraformaldehyde for 20 minutes, permeated in 0.5% NP-40 for 5 minutes, and blocked using 1% BSA solution for 30 minutes. […]
The cultured cells were immunostained with nerve cell-specific labeled molecule, and then neurite growth was observed under a confocal microscope. […] The differentiation degree was measured by double-staining neurites with nerve cell-specific labeled molecule (anti-neurofilament antibody) and FITC-labeled secondary antibody (green), followed by staining cell nuclei with propidium iodide (red).

SH-SY5Y = assay: Neurite regeneration in human neuroblastoma SH-SY5Y; format: cell-based; details: extract 50 μg/ml, retinoic acid 50 μM
Description: Retinoic acid and NGF inducing neurite growth were used as positive control groups.
as §1, §2

“NGF: Nerve Growth Factor, positive control inducing neurite growth in PC12 cells” was tested, and the development of neurites (PC12 cells) was “development of neurites”.

In the case of “bFGF: basic fibroblast growth factor, positive control inducing differentiation of HiB5 cells into nerve cells”, the cell survival (HiB5 cells; bFGF 20 ng/ml) is reported as “increased” and the “differentiation into nerve cells” value (HiB5 cells; extract 50 μg/ml or bFGF 20 ng/ml) is reported as “induced the differentiation into nerve cells; also recorded: differentiated into nerve cells”.

`CC1=C(/C=C/C(C)=C/C=C/C(C)=C/C(=O)O)C(C)(C)CCC1` [Retinoic acid] was tested, and the “Average (%) of differentiated cells” value (SH-SY5Y) was 81.59%.

— patent publication US20030224074A1, “Composition for the protection and regeneration of nerve cells containing the extract of Scutellaria Radix” (EUGENBIO INC., priority 2001, published 2003)
